Legend:
Type in all cases: functional, cell-based
Plasmodium falciparum [1] = experiment: Anti-plasmodial activity against chloroquine-sensitive Plasmodium falciparum 3D7 infected in human erythrocytes after 50 hrs by SYBR green dye based fluorescence assay; settings: 3D7, 50 h
SiHa = experiment: Antiproliferative activity against human SiHa cells after 48 hrs by SRB assay
PANC-1 = experiment: Antiproliferative activity against human PANC1 cells after 48 hrs by SRB assay; settings: PANC-1, 48 h
MDA-MB-231 = experiment: Antiproliferative activity against human MDA-MB-231 cells after 48 hrs by SRB assay; settings: MDA-MB-231, 48 h
IMR-32 = experiment: Antiproliferative activity against human IMR32 cells after 48 hrs by SRB assay; settings: IMR-32, 48 h
Plasmodium falciparum [2] = experiment: Anti-plasmodial activity against chloroquine-resistant Plasmodium falciparum Dd2 infected in human erythrocytes after 50 hrs by SYBR green dye based fluorescence assay; settings: Dd2, 50 h

SMILES | IC50 (Plasmodium falciparum [1]) | IC50 (SiHa) | IC50 (PANC-1) | IC50 (MDA-MB-231) | IC50 (IMR-32) | IC50 (Plasmodium falciparum [2])
C=CCCC(=O)O/N=C1/[C@H]2O[C@]23[C@@]2(C)[C@H](CC[C@@]3(C)[C@@H]1c1ccoc1)[C@@]1(C)C=CC(=O)C(C)(C)[C@@H]1C[C@H]2OC(C)=O | 5.8 µM | > 100 µM | > 100 µM | 55.8 µM | > 100 µM | –
CC(=O)O[C@@H]1C[C@H]2C(C)(C)C(O)C=C[C@]2(C)[C@H]2CC[C@@]3(C)[C@H](c4ccoc4)C(O)[C@H]4O[C@]43[C@@]21C (some centres undefined) | 35.5 µM | > 100 µM | > 100 µM | > 100 µM | > 100 µM | –
CC(=O)O[C@@H]1C[C@H]2C(C)(C)C(=O)C=C[C@]2(C)[C@H]2CC[C@@]3(C)[C@H](c4ccoc4)/C(=N\OC(=O)c4cc(Br)ccc4[N+](=O)[O-])[C@H]4O[C@]43[C@@]21C | 4.1 µM | > 100 µM | > 100 µM | > 100 µM | > 100 µM | –
COc1cccc2c1C(=O)c1c(O)c3c(c(O)c1C2=O)C[C@@](O)(C(=O)CO)C[C@@H]3O[C@H]1C[C@H](N)[C@H](O)[C@H](C)O1 [DOXORUBICIN] | – | 1.9 µM | 3.2 µM | 1.8 µM | 3.2 µM | –
CC(=O)O[C@@H]1C[C@H]2C(C)(C)C(=O)C=C[C@]2(C)[C@H]2CC[C@@]3(C)[C@H](c4ccoc4)/C(=N\OCc4cn(-c5ccc(C)cc5)nn4)[C@H]4O[C@]43[C@@]21C | 4.2 µM | > 100 µM | > 100 µM | > 100 µM | > 100 µM | –
CC(=O)O[C@@H]1C[C@H]2C(C)(C)C(=O)C=C[C@]2(C)[C@H]2CC[C@@]3(C)[C@H](c4ccoc4)/C(=N\OC(=O)c4ccccc4Br)[C@H]4O[C@]43[C@@]21C | 12.2 µM | > 100 µM | > 100 µM | > 100 µM | > 100 µM | –
CC(=O)O[C@@H]1C[C@H]2C(C)(C)C(=O)C=C[C@]2(C)[C@H]2CC[C@@]3(C)[C@H](c4ccoc4)/C(=N\OCc4cn(CC(=O)Nc5ccc(C)cc5)nn4)[C@H]4O[C@]43[C@@]21C | 31 µM | > 100 µM | > 100 µM | > 100 µM | > 100 µM | 24 µM
CC(=O)O[C@@H]1C[C@H]2C(C)(C)C(O)CC[C@]2(C)[C@H]2CC[C@@]3(C)[C@H](c4ccoc4)C(O)[C@H]4O[C@]43[C@@]21C (some centres undefined) | 21.4 µM | > 100 µM | > 100 µM | 15.9 µM | > 100 µM | –
CC(=O)O[C@@H]1C[C@H]2C(C)(C)C(=O)C3OC3[C@]2(C)[C@H]2CC[C@@]3(C)[C@H](c4ccoc4)C(=O)[C@H]4O[C@]43[C@@]21C (some centres undefined) | 15.5 µM | > 100 µM | > 100 µM | 23.2 µM | > 100 µM | –
CC(=O)O[C@@H]1C[C@H]2C(C)(C)C(=O)C=C[C@]2(C)[C@H]2CC[C@@]3(C)[C@H](c4ccoc4)/C(=N\OC(=O)c4ccc(Br)cc4)[C@H]4O[C@]43[C@@]21C | 9.4 µM | > 100 µM | > 100 µM | > 100 µM | > 100 µM | –
CCCC(=O)O/N=C1/[C@H]2O[C@]23[C@@]2(C)[C@H](CC[C@@]3(C)[C@@H]1c1ccoc1)[C@@]1(C)C=CC(=O)C(C)(C)[C@@H]1C[C@H]2OC(C)=O | 9.3 µM | > 100 µM | > 100 µM | > 100 µM | > 100 µM | –
CC(=O)O[C@@H]1C[C@H]2C(C)(C)C(=O)C(O)C(O)[C@]2(C)[C@H]2CC[C@@]3(C)[C@H](c4ccoc4)C(=O)[C@H]4O[C@]43[C@@]21C (some centres undefined) | 52.5 µM | > 100 µM | > 100 µM | 29.9 µM | > 100 µM | –
CC(=O)O[C@@H]1C[C@H]2C(C)(C)C(=O)C=C[C@]2(C)[C@H]2CC[C@@]3(C)[C@H](c4ccoc4)/C(=N\OCc4cn(CC(=O)Nc5ccccc5)nn4)[C@H]4O[C@]43[C@@]21C | 13.8 µM | > 100 µM | 25.4 µM | > 100 µM | > 100 µM | 8.3 µM
CC1(C)C(=O)C=C[C@]2(C)[C@H]3CC[C@@]4(C)[C@H](c5ccoc5)/C(=N\O)[C@H]5O[C@]54[C@]3(C)[C@H](O)C[C@@H]12 | 20 µM | > 100 µM | > 100 µM | > 100 µM | > 100 µM | –
CC(=O)O[C@@H]1C[C@H]2C(C)(C)C(=O)C=C[C@]2(C)[C@H]2CC[C@@]3(C)[C@H](c4ccoc4)/C(=N\O)[C@H]4O[C@]43[C@@]21C | 7.7 µM | > 100 µM | > 100 µM | > 100 µM | > 100 µM | 2.2 µM
CC(=O)O[C@@H]1C[C@H]2C(C)(C)C(=O)CC[C@]2(C)[C@H]2CC[C@@]3(C)[C@H](C4CCOC4)C(=O)[C@H]4O[C@]43[C@@]21C (some centres undefined) | 78.7 µM | > 100 µM | > 100 µM | > 100 µM | > 100 µM | –

SMILES | IC50 (Plasmodium falciparum [1]) | IC50 (SiHa) | IC50 (PANC-1) | IC50 (MDA-MB-231) | IC50 (IMR-32) | IC50 (Plasmodium falciparum [2])
CC(=O)O[C@@H]1C[C@H]2C(C)(C)C(=O)C=C[C@]2(C)[C@H]2CC[C@@]3(C)[C@H](c4ccoc4)C(O)[C@H]4O[C@]43[C@@]21C (some centres undefined) | 13.1 µM | > 100 µM | > 100 µM | 47.8 µM | > 100 µM | –
CC1(C)C(=O)C2OC2[C@]2(C)[C@H]3CC[C@@]4(C)[C@H](c5ccoc5)C(=O)[C@H]5O[C@]54[C@]3(C)C(=O)C[C@@H]12 (some centres undefined) | 131 µM | > 100 µM | > 100 µM | > 100 µM | > 100 µM | –
CC(=O)O[C@@H]1C[C@H]2C(C)(C)/C(=N/O)C=C[C@]2(C)[C@H]2CC[C@@]3(C)[C@H](c4ccoc4)/C(=N\O)[C@H]4O[C@]43[C@@]21C | 31.4 µM | > 100 µM | > 100 µM | 29.1 µM | > 100 µM | –
COc1ccc(C[C@@H](O)c2cc(OC)c(OC)c(OC)c2)cc1O [COMBRETASTATIN] | – | 2 µM | 3.5 µM | 2.3 µM | 2.4 µM | –
CCC(=O)O[C@@H]1C[C@H]2C(C)(C)C(=O)C=C[C@]2(C)[C@H]2CC[C@@]3(C)[C@H](c4ccoc4)C(=O)[C@H]4O[C@]43[C@@]21C | 7.1 µM | – | – | – | – | –
CC(=O)O[C@@H]1C[C@H]2C(C)(C)C(=O)CC[C@]2(C)[C@H]2CC[C@@]3(C)[C@H](c4ccoc4)C(=O)[C@H]4O[C@]43[C@@]21C | 7.5 µM | > 100 µM | > 100 µM | 20.2 µM | > 100 µM | –
CCC(=O)O/N=C1/[C@H]2O[C@]23[C@@]2(C)[C@H](CC[C@@]3(C)[C@@H]1c1ccoc1)[C@@]1(C)C=CC(=O)C(C)(C)[C@@H]1C[C@H]2OC(C)=O | 9.3 µM | > 100 µM | > 100 µM | > 100 µM | > 100 µM | –
COc1ccc(OC)c(/C=C/C(=O)O[C@@H]2C[C@H]3C(C)(C)C(=O)C=C[C@]3(C)[C@H]3CC[C@@]4(C)[C@H](c5ccoc5)C(=O)[C@H]5O[C@]54[C@@]32C)c1 | 8.8 µM | > 100 µM | > 100 µM | > 100 µM | > 100 µM | –
CCC(=O)Nc1ccc(-n2cc(CO/N=C3/[C@H]4O[C@]45[C@@]4(C)[C@H](CC[C@@]5(C)[C@@H]3c3ccoc3)[C@@]3(C)C=CC(=O)C(C)(C)[C@@H]3C[C@H]4OC(C)=O)nn2)cc1 | 6.7 µM | > 100 µM | > 100 µM | > 100 µM | > 100 µM | –
CC1(C)C(=O)C=C[C@]2(C)[C@H]3CC[C@@]4(C)[C@H](c5ccoc5)C(=O)[C@H]5O[C@]54[C@]3(C)[C@H](O)C[C@@H]12 | 11.4 µM | – | – | – | – | 9.4 µM
CC(=O)O[C@@H]1C[C@H]2C(C)(C)C(=O)C=C[C@]2(C)[C@H]2CC[C@@]3(C)[C@H](c4ccoc4)/C(=N\OCc4cn(-c5ccc(Cl)cc5)nn4)[C@H]4O[C@]43[C@@]21C | 2.9 µM | > 100 µM | > 100 µM | 21.3 µM | > 100 µM | –
COc1cccc(C(=O)O/N=C2/[C@H]3O[C@]34[C@@]3(C)[C@H](CC[C@@]4(C)[C@@H]2c2ccoc2)[C@@]2(C)C=CC(=O)C(C)(C)[C@@H]2C[C@H]3OC(C)=O)c1 | 8 µM | > 100 µM | > 100 µM | > 100 µM | > 100 µM | –
CC(=O)O/N=C1/[C@H]2O[C@]23[C@@]2(C)[C@H](CC[C@@]3(C)[C@@H]1c1ccoc1)[C@@]1(C)C=CC(=O)C(C)(C)[C@@H]1C[C@H]2OC(C)=O | 9.3 µM | > 100 µM | > 100 µM | > 100 µM | > 100 µM | –
CC(=O)O[C@@H]1C[C@H]2C(C)(C)C(=O)C=C[C@]2(C)[C@H]2CC[C@@]3(C)[C@H](c4ccoc4)/C(=N\OCc4cn(-c5cc(Cl)c(Cl)cc5Cl)nn4)[C@H]4O[C@]43[C@@]21C | 2.3 µM | > 100 µM | > 100 µM | > 100 µM | > 100 µM | –
CC(=O)O[C@@H]1C[C@H]2C(C)(C)C(=O)C=C[C@]2(C)[C@H]2CC[C@@]3(C)[C@H](c4ccoc4)/C(=N\OCc4cn(-c5ccccc5C#N)nn4)[C@H]4O[C@]43[C@@]21C | 1.7 µM | > 100 µM | > 100 µM | > 100 µM | > 100 µM | –
CC(=O)O[C@@H]1C[C@H]2C(C)(C)C(=O)C=C[C@]2(C)[C@H]2CC[C@@]3(C)[C@H](c4ccoc4)/C(=N\OC(=O)c4cccc([N+](=O)[O-])c4)[C@H]4O[C@]43[C@@]21C | 28.6 µM | > 100 µM | > 100 µM | > 100 µM | > 100 µM | –

Reference: ChEMBL document CHEMBL4020729, “Synthesis and evaluation of anti-plasmodial and cytotoxic activities of epoxyazadiradione derivatives” (Eur J Med Chem, 2017)
